Reference: patent US20240148733A1, “COMBINATION THERAPY” (Genentech, Inc., priority 2021, published 2024)

How the values were obtained:
Test in all cases: Drug combination assay (CellTiter-Glo cell viability)
Type in all cases: cell-based
[1] = system: H2030 cells (KRAS G12C); conditions: six days, 96-wells
Experimental: (§1) Cells were seeded in either 96-well or 384-well plates 16 h before treatment at a density of 1000 cells per well. Then, cells were treated with varying concentrations of compound(s) as indicated in FIGS. 1-8 (384-wells) and FIGS. 10-105 (96-wells), either a single agent or in combination, for six days. The relative number of viable cells was estimated using CellTiter-Glo Luminescent Cell Viability Assay (Promega, G7573). Total luminescence was detected on a Wallac Multilabel Reader (Perkin-Elmer).

[2] = system: H358 parental cells (KRAS G12C); conditions: six days, 96-wells
Experimental: as §1

[3] = system: H358 resistant cells (KRAS G12C); conditions: six days, 96-wells
Experimental: as §1

[4] = system: H2122 cells (KRAS G12C); conditions: six days, 384-wells
Experimental: as §1

[5] = combination with Compound K1 (a KRAS inhibitor)
[6] = combination with Compound K2 (a KRAS inhibitor)
[7] = combination with Compound K3 (a KRAS inhibitor)
[8] = combination with Compound K4 (a KRAS inhibitor)

| Compound | % inhibition of H2030 cells (KRAS G12C) [1, 5] | % inhibition of H2030 cells (KRAS G12C) [1, 6] | % inhibition of H2030 cells (KRAS G12C) [1, 7] | % inhibition of H2030 cells (KRAS G12C) [1, 8] | % inhibition of H358 parental cells (KRAS G12C) [2, 5] | % inhibition of H358 parental cells (KRAS G12C) [2, 6] | % inhibition of H358 parental cells (KRAS G12C) [2, 7] | % inhibition of H358 parental cells (KRAS G12C) [2, 8] | combination effect on cell viability (qualitative) [3, 5] | combination effect on cell viability (qualitative) [3, 6] | combination effect on cell viability (qualitative) [3, 7] | combination effect on cell viability (qualitative) [3, 8] | % inhibition of H2122 cells (KRAS G12C) [4, 5] | % inhibition of H2122 cells (KRAS G12C) [4, 6] |
| --- | --- | --- | --- | --- | --- | --- | --- | --- | --- | --- | --- | --- | --- | --- |
| Cc1nccnc1-c1nn2c(=O)cc(-c3ccc(C4CCCCC4)cc3)[nH]c2c1C(=O)N1C[C@H](CF)[C@@H]1C (racemic) [Compound T9, 5-(4-cyclohexylphenyl)-2-(3-methylpyrazin-2-yl)-3-[rac-(2S,3S)-3-(fluoromethyl)-2-methyl-azetidine-1-carbonyl]-4H-pyrazolo[1,5-a]pyrimidin-7-one] | sensitizes cells resistant to Compound K1 | sensitizes cells resistant to Compound K2 | sensitizes cells resistant to Compound K3 | sensitizes cells resistant to Compound K4 | sensitizes cells resistant to Compound K1 | sensitizes cells resistant to Compound K2 | sensitizes cells resistant to Compound K3 | sensitizes cells resistant to Compound K4 | sensitizes cells resistant to Compound K1 | sensitizes cells resistant to Compound K2 | sensitizes cells resistant to Compound K3 | sensitizes cells resistant to Compound K4 |  |  |
| C=CC(=O)Nc1cnc(OC)c(/C=C/[C@H]2CC[C@H](C(F)(F)F)CC2)c1 [Compound T3, N-(6-methoxy-5-((E)-2-((1r,4r)-4-(trifluoromethyl)cyclohexyl)vinyl)pyridin-3-yl)acrylamide] | sensitizes cells resistant to Compound K1 | sensitizes cells resistant to Compound K2 | sensitizes cells resistant to Compound K3 | sensitizes cells resistant to Compound K4 | sensitizes cells resistant to Compound K1 | sensitizes cells resistant to Compound K2 | sensitizes cells resistant to Compound K3 | sensitizes cells resistant to Compound K4 | sensitizes cells resistant to Compound K1 | sensitizes cells resistant to Compound K2 | sensitizes cells resistant to Compound K3 | sensitizes cells resistant to Compound K4 | sensitizes cells resistant to Compound K1 | sensitizes cells resistant to Compound K2 |
| C=C(CNc1cc(-c2ccc(C(C)C)cc2)c2c(c1C#N)CCO2)C(=O)O [Compound T4, 2-(((4-cyano-7-(4-isopropylphenyl)-2,3-dihydrobenzofuran-5-yl)amino)methyl)acrylic acid] |  |  |  |  |  |  |  |  |  |  |  |  | sensitizes cells resistant to Compound K1 | sensitizes cells resistant to Compound K2 |
| COc1cnc(C(=O)NCc2cccc(CC(=O)N(C)CCOCCOCCOCCOCCOc3ccc4c(c3)C(=O)N(C3CCC(=O)NC3=O)C4=O)c2)cc1/C=C/[C@H]1CC[C@H](C(F)(F)F)CC1 (stereo partly drawn) [Compound T5, N-[[3-[2-[2-[2-[2-[2-[2-[2-(2,6-dioxo-3-piperidyl)-1,3-dioxo-isoindolin-5-yl]oxyethoxy]ethoxy]ethoxy]ethoxy]ethyl-methyl-amino]-2-oxo-ethyl]phenyl]methyl]-5-methoxy-4-[rac-(E)-2-[4-(trifluoromethyl)cyclohexyl]vinyl]pyridine-2-carboxamide] | sensitizes cells resistant to Compound K1 | sensitizes cells resistant to Compound K2 | sensitizes cells resistant to Compound K3 | sensitizes cells resistant to Compound K4 | sensitizes cells resistant to Compound K1 | sensitizes cells resistant to Compound K2 | sensitizes cells resistant to Compound K3 | sensitizes cells resistant to Compound K4 | sensitizes cells resistant to Compound K1 | sensitizes cells resistant to Compound K2 | sensitizes cells resistant to Compound K3 | sensitizes cells resistant to Compound K4 |  |  |
| C[C@@H](NC(=O)c1ccc2c(Oc3ccc(C(F)(F)F)cc3)cccc2c1)c1cccc(N)n1 [Compound T6, N-[(1R)-1-(6-amino-2-pyridyl)ethyl]-5-[4-(trifluoromethyl)phenoxy]naphthalene-2-carboxamide] | sensitizes cells resistant to Compound K1 | sensitizes cells resistant to Compound K2 | sensitizes cells resistant to Compound K3 | sensitizes cells resistant to Compound K4 | sensitizes cells resistant to Compound K1 | sensitizes cells resistant to Compound K2 | sensitizes cells resistant to Compound K3 | sensitizes cells resistant to Compound K4 | sensitizes cells resistant to Compound K1 | sensitizes cells resistant to Compound K2 | sensitizes cells resistant to Compound K3 | sensitizes cells resistant to Compound K4 |  |  |
| C[C@H](NC(=O)c1ccc2c(-c3ccc(C(F)(F)F)cc3)cccc2c1)c1ccccn1 [Compound T7, N-[(1S)-1-(2-pyridyl)ethyl]-5-[4-(trifluoromethyl)phenyl]naphthalene-2-carboxamide] | sensitizes cells resistant to Compound K1 | sensitizes cells resistant to Compound K2 | sensitizes cells resistant to Compound K3 | sensitizes cells resistant to Compound K4 | sensitizes cells resistant to Compound K1 | sensitizes cells resistant to Compound K2 | sensitizes cells resistant to Compound K3 | sensitizes cells resistant to Compound K4 | sensitizes cells resistant to Compound K1 | sensitizes cells resistant to Compound K2 | sensitizes cells resistant to Compound K3 | sensitizes cells resistant to Compound K4 |  |  |
| CNS(=O)(=O)c1ccc(Nc2ccc(C(F)(F)F)cc2)c(-c2cn(C)cn2)c1 [Compound T8, N-methyl-3-(1-methylimidazol-4-yl)-4-[4-(trifluoromethyl)anilino]benzenesulfonamide] | sensitizes cells resistant to Compound K1 | sensitizes cells resistant to Compound K2 | sensitizes cells resistant to Compound K3 | sensitizes cells resistant to Compound K4 | sensitizes cells resistant to Compound K1 | sensitizes cells resistant to Compound K2 | sensitizes cells resistant to Compound K3 | sensitizes cells resistant to Compound K4 | sensitizes cells resistant to Compound K1 | sensitizes cells resistant to Compound K2 | sensitizes cells resistant to Compound K3 | sensitizes cells resistant to Compound K4 |  |  |
| Cn1cc2c3cc(C(=O)O)ccc3n(-c3ccc(C(F)(F)F)cc3)c2n1 [Compound T10] | sensitizes cells resistant to Compound K1 | sensitizes cells resistant to Compound K2 | sensitizes cells resistant to Compound K3 | sensitizes cells resistant to Compound K4 | sensitizes cells resistant to Compound K1 | sensitizes cells resistant to Compound K2 | sensitizes cells resistant to Compound K3 | sensitizes cells resistant to Compound K4 | sensitizes cells resistant to Compound K1 | sensitizes cells resistant to Compound K2 | sensitizes cells resistant to Compound K3 | sensitizes cells resistant to Compound K4 |  |  |
